Source: patent US8642657B2 (Gruenenthal GmbH, priority 2003, dated 2014)

Key:
rat VR1 [1] = biological target: T1, rat VR1 (Rattus norvegicus, UniProt O35433); settings: rat VR1 expressed in CHO cells; cited from earlier work
T1 construct: expressed in transfected cells

rat VR1 [2] = biological target: T1, rat VR1; test: [3H]resiniferatoxin (RTX) competition binding assay, VR1-transfected CHO cells
In short: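 Competition with [3H]RTX (50-100 pM) ran 60 min at 37° C using whole VR1-induced CHO cells in BSA-containing DPBS, nonspecific defined by 100 nM cold RTX. After centrifugation, pellet radioactivity counted by scintillation; Hill fits gave Ki and cooperativity.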

rat VR1 [3] = biological target: T1, rat VR1; test: 45Ca2+-uptake assay in CHO/VR1 cells, antagonism of capsaicin-stimulated uptake; type: cell-based; settings: 45Ca2+ uptake stimulated by 50 nM capsaicin
[4] = competition with [3H]RTX, rat VR1 in CHO cells, read-out: Ki (nM) Binding Affinity

T1 sequence (O35433 whole entry): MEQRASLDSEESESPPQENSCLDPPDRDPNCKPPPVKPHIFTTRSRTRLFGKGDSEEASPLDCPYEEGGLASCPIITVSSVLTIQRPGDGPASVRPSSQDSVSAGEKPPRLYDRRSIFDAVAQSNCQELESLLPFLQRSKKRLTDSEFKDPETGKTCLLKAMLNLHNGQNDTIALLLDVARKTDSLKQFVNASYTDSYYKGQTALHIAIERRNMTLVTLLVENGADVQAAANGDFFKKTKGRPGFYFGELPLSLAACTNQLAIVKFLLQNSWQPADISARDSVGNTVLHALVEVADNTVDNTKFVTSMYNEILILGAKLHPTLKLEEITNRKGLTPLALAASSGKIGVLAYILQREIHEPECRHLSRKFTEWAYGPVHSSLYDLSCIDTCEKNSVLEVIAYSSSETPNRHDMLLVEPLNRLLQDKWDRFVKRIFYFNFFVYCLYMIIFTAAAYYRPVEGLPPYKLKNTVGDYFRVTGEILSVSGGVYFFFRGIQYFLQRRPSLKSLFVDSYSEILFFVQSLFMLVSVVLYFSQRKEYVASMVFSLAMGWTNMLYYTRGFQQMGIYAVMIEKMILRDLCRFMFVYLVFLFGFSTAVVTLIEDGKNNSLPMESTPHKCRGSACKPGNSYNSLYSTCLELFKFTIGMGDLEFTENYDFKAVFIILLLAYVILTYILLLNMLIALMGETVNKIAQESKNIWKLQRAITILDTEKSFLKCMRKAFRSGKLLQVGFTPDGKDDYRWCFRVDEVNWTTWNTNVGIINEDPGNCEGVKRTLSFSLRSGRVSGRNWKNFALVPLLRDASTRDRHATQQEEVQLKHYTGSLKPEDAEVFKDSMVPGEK

SMILES | agonism/antagonism character (rat VR1 [1]) | melting point [°C] | Ki (rat VR1 [2]; [4]) [nM] | Ki (rat VR1 [3]) [nM] | Ki (rat VR1 [2]) [nM]
Cc1ccc(CC(CNC(=S)NCc2ccc(NS(C)(=O)=O)cc2)COC(=O)C(C)(C)C)cc1C (stereo not shown) [Compound 1, N-[2-(3,4-dimethylbenzyl)-3-pivaloyloxypropyl]-N′-[4-(methylsulfonylamino)benzyl]thiourea] | partial agonism | – | – | – | –
C[C@H](C(=O)NC[C@H](COC(=O)C(C)(C)C)Cc1ccc(C(C)(C)C)cc1)c1ccc(NS(C)(=O)=O)c(Cl)c1 [6-13, N-[(2R)-2-(4-t-Butylbenzyl)-3-(pivaloyloxy)propyl]-(2S)-2-[3-chloro-4-(methylsulfonylamino)phenyl]propionamide] | – | 61 to 63 | 1.83 | 5.23 | –
CC(C(=O)NCc1ccc(Cl)c(Cl)c1)c1ccc(NS(C)(=O)=O)c(Cl)c1 (stereo not shown) [4-5, N-(3,4-Dichlorobenzyl)-2-[3-chloro-4-(methylsulfonylamino)phenyl]propionamide] | – | 129 to 130 | – | 176 | 289
Cc1ccc(CC(CNC(=O)C(C)(C)c2ccc(NS(C)(=O)=O)c(F)c2)COC(=O)C(C)(C)C)cc1C (stereo not shown) [9-2, N-[2-(3,4-Dimethylbenzyl)-3-pivaloyloxypropyl]-2-[3-fluoro-4-(methylsulfonylamino)phenyl]-2-methylpropionamide] | – | 53 to 55 | – | 65.4 | 276
CC(NC(=S)NCC(COC(=O)C(C)(C)C)Cc1ccc(C(C)(C)C)cc1)c1ccc(NS(C)(=O)=O)cc1 (stereo not shown) [18-9, N-[2-(4-tert-Butylbenzyl)-3-(pivaloyloxy)propyl]-N′-{1-[4-(methylsulfonylamino)phenyl]ethyl}thiourea] | – | 87 | – | 28.7 | 42.7
Cc1ccc(CC(CNC(=O)C(C)c2ccc(NS(C)(=O)=O)c(F)c2)COC(=O)C(C)(C)C)cc1C (stereo not shown) [5-3, 2-[3-Fluoro-4-(methylsulfonylamino)phenyl]-N-[2-(3,4-dimethylbenzyl)-3-pivaloyloxypropyl]propionamide] | – | 46 to 48 | 33.1 | 10.8 | –
CC(C(=O)NCc1ccc(Cl)cc1)c1ccc(NS(C)(=O)=O)c(F)c1 (stereo not shown) [4-1, N-(4-Chlorobenzyl)-2-[3-fluoro-4-(methylsulfonylamino)phenyl]propionamide] | – | 129 to 130 | 1060 | 367 | –
Cc1ccc(CCCNC(=O)C(C)(C)c2ccc(NS(C)(=O)=O)cc2)cc1C [9-4, N-[3-(3,4-Dimethylphenyl)propyl]-2-[4-(methylsulfonylamino)phenyl]-2-methylpropionamide] | – | 138 to 139 | – | 573 | 1700
C[C@H](C(=O)N[C@@H](COC(=O)C(C)(C)C)Cc1ccccc1)c1ccc(NS(C)(=O)=O)c(F)c1 [6-1, N—[(R)-1-Benzyl-2-(pivaloyloxy)ethyl]-(S)-2-[3-fluoro-4-(methylsulfonylamino)phenyl]propionamide] | – | 115 | 12800 | 1470 | –
CC(C(=O)NCCc1ccc(C(C)(C)C)cc1)c1ccc(NS(C)(=O)=O)c(F)c1 (stereo not shown) [4-14, N-[2-(4-t-Butylphenyl)ethyl]-2-[3-fluoro-4-(methylsulfonylamino)phenyl]propionamide] | – | 124 to 126 | 553 | 42.6 | –
